Measured values taken from patent publication US9683254B2, “Compositions and methods for identifying enzyme and transport protein inhibitors” (San Diego State University (SDSU) Foundation, priority 2010, dated 2017).

Experiments:
HIV-1 PR [1] = target: T1, HIV-1 PR (Human immunodeficiency virus type 1 group M subtype B, UniProt P04585); type: cell-based; parameters: expressed in transfected cells; host or cells: SupT1 T-cell clone (lentiviral transduction; rtTA/mCherry, 5xUAS-eGFP reporter, inducible PR/Gal4); details: for concentration resulting in eGFP activation: analyzed 50 hrs, range tested 1 nM to 20 μM
Experimental: Finally, cells were infected with virus encoding the reporter, rtTA and inducible wild-type PR/Gal4 (pH-TRE-PR/Gal4) to test the ability for this system in T-cells to indicate the levels of PR activity.
To determine the optimal time point for the analysis of eGFP expression in the presence of inhibitor, cells were activated with Dox and analyzed by flow cytometry 4, 8, 12, 16, 20, 25, 50, or 75 hours later. Six-well plates containing 250K cells per well in 3 mL media were treated either with DMSO alone as control, or 1 μg/mL Dox and 10 μM Indinavir.
(§1) The range chosen extended from 1 nM to 20 μM.
Flow Cytometry was performed on a BD FACSAria™ with 488 nm and 633 nm lasers. Data was collected on FACSDiva 6.1.1™ software and then exported to FlowJo™. eGFP expression was detected in the FITC channel and mCherry expression was detected on the PE-Texas-Red channel. Cells were first gated for size and granularity (FSC-A vs SSC-A) followed by doublet gating (FSC-A vs FSC-W and SSC-A vs. SSC-W). Sorted populations were gated on PE-TexasRed vs FITC plot. 250K cells were collected for each sample into 0.5 mL fetal calf serum (FCS) and 1 mL RPMI. Cells were then spun down at 1500 RPM and resuspended in fresh media in 6-well plates. Cells were allowed to grow for at least seven days to allow for expansion and loss of previously activated eGFP expression.
FIG. 21A (upper left) schematically illustrates exemplary constructs utilized to generate infectious particles for the transduction of SupT1 cells with the various assay elements. FIG. 21B (right) illustrates data from a cell sorting assay comprising: a previously generated stable SupT1 cell line expressing rtTA and mCherry was infected with the reporter virus (generated from pH-5×UAS-eGFP), or co-infected with the reporter virus plus a virus encoding an inducible assay element (generated from pH-TRE-Gal4, pH-TRE-PR/Gal4, or pH-TRE-PRm/Gal4). Cells were then activated with either 1 μg/mL of Dox alone, or were pre-incubated for 5 minutes with 10 μM Indinavir following activation with 1 μg/mL Dox. […] Finally, single SupT1 cells from the purified population were sorted into 96 well plates and grown as a monoclonal population and then tested for optimal responses to assay induction of eGFP under appropriate conditions. FIG. 21C (lower left) illustrates images of fluorescence microscopy of SupT1 clones expressing the assay elements. Cells expressing various elements of the assay were treated as indicated with DMSO, DMSO+1 μg/mL Dox, or […] Dox+10 μM Indinavir and analyzed 24 hours later by fluorescence microscopy for mCherry and eGFP expression. D. Quantification of eGFP expression of clonal SupT1 cells treated with DMSO, DMSO+1 μg/mL Dox, or 1 μg/mL Dox+10 μM Indinavir.
(§2) FIG. 22 graphically illustrates data determining the optimal conditions for activating the assay to screen for PR inhibition. FIG. 22A graphically illustrates a Doxycycline titration. Clonal SupT1 cells harboring an inducible Gal4, PR/Gal4 or PRm/Gal4 were pre-incubated in a 96 well plate with either DMSO or 10 μM Indinavir and then either left untreated, or activated with […] of Dox. Cells were analyzed by flow cytometry and gated to determine the number of cells positive for eGFP expression. FIG. 22B graphically illustrates a time course of eGFP Induction in response to Doxycyline activation in the presence of DMSO or a PI.

[2] = test system: tet-responsive element (TRE); assay: Doxycycline activation titration of clonal SupT1 cells (Tet-On, eGFP readout); type: cell-based
Experimental: In order to optimize the assay for maximal Gal4, PR/Gal4 or PRm/Gal4 induction, we analyzed the effect of increasing levels of Dox. Cells with 0, 50, 100, 250, 500, 750, 1,000, and 2,000 ng/mL Dox were either treated with 10 uM DMSO or 10 uM Indinavir and analyzed 32 hours later. TRE-Gal4 cells reached saturation with Doxycycline at about 1,000 ng/mL whether Indinavir was present or not. […] Again, as with transiently transfected 293 cells, TRE-PR/Gal4 cells had little to non-detectable eGFP expression at any given Dox concentration in the absence of 10 μM Indinavir.
as §2, with “PI. SupT1 clones harboring Gal4, PR/Gal4, or PRm/Gal4 were pre-incubated in a 96 well plate with either DMSO or 10 μM Indinavir and then activated with 1 μg/mL Dox. Cells were analyzed at either 4, 8, 12, 16, 20, 25, 50 or 75 hours by flow cytometry and gated for eGFP positive expression.” for “PI.”

HIV-1 PR [3] = target: T1, HIV-1 PR; type: cell-based; parameters: expressed in transfected cells; rtTA/mCherry, 5xUAS-eGFP reporter, inducible PR/Gal4; details: HEK293T cells pre-treated with 10 uM inhibitor, co-transfected with reporter and pcDNA-PR/Gal4
Experimental: It was of critical importance to verify the ability for the PR/Gal4 fusion to activate the reporter eGFP by the addition of PR inhibitors. For that purpose, 293T cells were pre-treated with 10 μM Indinavir and then co-transfected with reporter and pcDNA-PR/Gal4 vectors.
293T cells were transfected as follows. 15 μl of 2 mg/mL Polyethylenimine linear 25 kD (Polysciences, Inc.) were added to 125 μl of DMEM in a 1.8 ml Eppendorf tube. 3 g of each DNA was added drop-wise to each tube. Tubes were mixed and incubated for 20 min at RT. This mixture was then added drop-wise to 293T cells in a 10 cm plate at approximately 60-75% confluence. Cells were then analyzed by fluorescence microscopy and/or flow cytometry 24 hrs post transfection.
Top Panel: Fluorescence microscopy of eGFP expression in HEK293T cells 24 hours post transfection with the reporter vector (pFR), or co-transfection with the reporter vector plus either the Gal4, PR/Gal4, or PRm/Gal4 vectors. Bottom panel: HEK293T cells were analyzed by flow cytometry at 24 hours post transfection with the same conditions top panel. Gates were drawn to determine the ability to identify cells with an active PI. […] Quantification of eGFP expression in HEK293T transfected with various assay elements. The numbers of cells under various conditions were quantified for eGFP levels indicative of PR inhibition. Results shown are an average of 3 experiments.

HIV-1 PR [4] = target: T1, HIV-1 PR; type: cell-based; parameters: expressed in transfected cells; host or cells: SupT1 T-cell clone (lentiviral transduction; rtTA/mCherry, 5xUAS-eGFP reporter, inducible PR/Gal4); details: clonal SupT1, 96-well plates, pre-incubation with 1 μM PI, activation at 1 μg/mL Dox
SupT1 cells = assay: Cell death in the reporter T-cell clones during PI concentration response; details: for concentration resulting in significant cell death, with decline in number of eGFP positive cells: human, 50 h
Experimental: as §1
Cells were then analyzed 50 hrs later for eGFP expression as determined by flow cytometry on a BD FACSAria.

[5] = SupT1 PR/Gal4 clone, 1 μg/mL Dox, 50 hrs
[6] = SupT1 PR/Gal4 clone, 1 μg/mL Dox

Structure (SMILES): COC(=O)N[C@H](C(=O)N[C@@H](Cc1ccccc1)[C@@H](O)CN(Cc1ccc(-c2ccccn2)cc1)NC(=O)[C@@H](NC(=O)OC)C(C)(C)C)C(C)(C)C [Atazanavir]
- effect on PR inhibition (ranking among tested PIs) (HIV-1 PR [1]; [5]): strongest effect
- concentration resulting in eGFP activation (HIV-1 PR [1]; [6]): 1 nM

Structure (SMILES): CC(C)CN(C[C@@H](O)[C@H](Cc1ccccc1)NC(=O)O[C@H]1CO[C@H]2OCC[C@H]21)S(=O)(=O)c1ccc(N)cc1 [Darunavir]
- effect on PR inhibition (ranking among tested PIs) (HIV-1 PR [1]; [5]): strongest effect
- concentration resulting in eGFP activation (HIV-1 PR [1]; [6]): 1 nM

Structure (SMILES): C[C@H]1c2cccc(O)c2C(=O)C2=C(O)[C@]3(O)C(=O)C(C(N)=O)=C(O)[C@@H](N(C)C)[C@@H]3[C@@H](O)[C@@H]21 [Doxycycline]
- concentration at saturation of eGFP induction, TRE-Gal4 cells ([2]; clonal SupT1 TRE-Gal4, with or without 10 uM Indinavir, 32 hours): about 1,000 ng/mL
- concentration at maximal eGFP induction, TRE-PR/Gal4 cells ([2]; clonal SupT1 TRE-PR/Gal4, pre-incubation with 10 μM Indinavir, 32 hours): around 500 ng/mL
- concentration at saturation of eGFP induction, TRE-PRm/Gal4 cells ([2]; clonal SupT1 TRE-PRm/Gal4, uninhibited and Indinavir-treated, 32 hours): around 250 ng/mL
- concentration at which activation is saturated (FIG. 33) ([2]; clonal SupT1 cells pre-incubated with DMSO or 1 μM Indinavir): around 1 μg/mL

Structure (SMILES): CC(C)(C)NC(=O)[C@@H]1CN(Cc2cccnc2)CCN1C[C@@H](O)C[C@@H](Cc1ccccc1)C(=O)N[C@H]1c2ccccc2C[C@H]1O [Indinavir]
- eGFP expression (reporter activation by PR/Gal4) (HIV-1 PR [3]): drastic induction
- concentration inducing nearly full activation of reporter (HIV-1 PR [1]; [5]): 5 µM
- levels of reporter activation at low concentrations (ranking among tested PIs) (HIV-1 PR [1]; [5]): lowest levels
- activation of PR/Gal4 clones (FIG. 31) (HIV-1 PR [1]; SupT1 PR/Gal4 clones, Dox 1 μg/mL, PI 1 μM, <1% background): ~90%
- time of initial induction of eGFP expression (HIV-1 PR [1]; clonal SupT1, 1 μg/mL Dox and 10 μM inhibitor): 8 h
- eGFP expression (% of cells) at 50 hours (HIV-1 PR [1]; clonal SupT1, 1 μg/mL Dox and 10 μM inhibitor, by 50 hours): ~100%
- eGFP expression (HIV-1 PR [1]; non-clonal SupT1 cells with reporter, rtTA and pH-TRE-PR/Gal4, 1 μg/mL Dox and 10 μM inhibitor): large induction
- time at which activation of clones reaches max (FIG. 34) (HIV-1 PR [4]): around 48 hrs

Structure (SMILES): Cc1cccc(C)c1OCC(=O)N[C@@H](Cc1ccccc1)[C@@H](O)C[C@H](Cc1ccccc1)NC(=O)[C@H](C(C)C)N1CCCNC1=O [Lopinavir]
- concentration resulting in significant cell death, with decline in number of eGFP positive cells (SupT1 cells): around 1 uM

Structure (SMILES): Cc1c(O)cccc1C(=O)N[C@@H](CSc1ccccc1)[C@H](O)CN1C[C@H]2CCCC[C@H]2C[C@H]1C(=O)NC(C)(C)C [Nelfinavir]
- concentration resulting in significant cell death, with decline in number of eGFP positive cells (SupT1 cells): around 1 uM

Structure (SMILES): CC(C)(C)NC(=O)[C@@H]1C[C@@H]2CCCC[C@@H]2CN1C[C@@H](O)[C@H](Cc1ccccc1)NC(=O)[C@H](CC(N)=O)NC(=O)c1ccc2ccccc2n1 [Saquinavir]
- concentration with significant cell death / decline in number of eGFP positive cells (SupT1 cells; SupT1 PR/Gal4 clone, 50 hrs, maximal level tested): 20 µM
